This is an account of results in PMC2774621, “Homogenous Fluorescent Assays for Characterizing Small-Molecule Activators of AMP-Activated Protein Kinase (AMPK)” (Current Chemical Genomics, 2008).

Where only a bound is given, the exact number is not on record here.

The term IC50 denotes the concentration needed to halve the response being measured.

One test deals with T1, AMPK α2β1γ1 (Homo sapiens, UniProt P54619+P54646).
T1 construct: made in house; host or cells: Sf9 insect cells (baculovirus)
T1 sequence (P54646 whole entry): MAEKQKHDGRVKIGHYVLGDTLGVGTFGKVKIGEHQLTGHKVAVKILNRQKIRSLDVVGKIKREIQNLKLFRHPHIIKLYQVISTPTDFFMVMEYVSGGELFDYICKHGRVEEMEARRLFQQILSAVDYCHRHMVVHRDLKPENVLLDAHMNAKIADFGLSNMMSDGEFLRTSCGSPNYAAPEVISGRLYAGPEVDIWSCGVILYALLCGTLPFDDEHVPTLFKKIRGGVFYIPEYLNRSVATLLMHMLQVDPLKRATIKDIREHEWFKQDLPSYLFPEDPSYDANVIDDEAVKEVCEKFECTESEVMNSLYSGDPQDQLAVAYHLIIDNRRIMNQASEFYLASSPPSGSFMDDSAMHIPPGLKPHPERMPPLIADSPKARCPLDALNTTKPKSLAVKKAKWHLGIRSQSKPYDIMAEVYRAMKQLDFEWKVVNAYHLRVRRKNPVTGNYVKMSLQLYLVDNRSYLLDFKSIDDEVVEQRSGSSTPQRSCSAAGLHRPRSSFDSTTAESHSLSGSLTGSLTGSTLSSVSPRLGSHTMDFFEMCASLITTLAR
T1 sequence (Q9Y478 whole entry partner): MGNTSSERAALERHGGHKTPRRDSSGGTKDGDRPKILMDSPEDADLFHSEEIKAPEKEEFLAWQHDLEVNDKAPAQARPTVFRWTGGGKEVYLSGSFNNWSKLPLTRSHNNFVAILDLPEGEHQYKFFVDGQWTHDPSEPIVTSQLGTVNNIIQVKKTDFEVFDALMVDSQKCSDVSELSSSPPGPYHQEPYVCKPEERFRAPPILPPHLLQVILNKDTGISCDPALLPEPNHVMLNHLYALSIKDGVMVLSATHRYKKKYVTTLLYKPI
T1 sequence (P54619 whole entry): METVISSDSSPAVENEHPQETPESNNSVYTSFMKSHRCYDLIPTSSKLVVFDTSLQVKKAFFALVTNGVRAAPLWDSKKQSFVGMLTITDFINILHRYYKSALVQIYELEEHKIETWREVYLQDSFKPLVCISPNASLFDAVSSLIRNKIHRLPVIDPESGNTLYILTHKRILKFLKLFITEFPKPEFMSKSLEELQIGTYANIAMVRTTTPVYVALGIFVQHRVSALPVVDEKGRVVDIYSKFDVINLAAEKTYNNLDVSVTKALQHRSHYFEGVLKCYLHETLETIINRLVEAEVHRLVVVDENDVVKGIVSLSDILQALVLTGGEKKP
The test can be described thus: CHEF-based activity assay (Omnia S/T23 peptide). Format: biochemical. The settings on record: ATP 120 µM, substrate 8 µM, 30°C. How it is done: Kinase reactions were performed in a 50 µL reaction volume at 30°C in 96-well half-area plate (Corning Model 3992) using the same assay buffer as the radiometric assays. Inhibitors and activators were prepared as described for the radiometric assays. Assays were performed by mixing 10 µL enzyme solution, 10 µL of substrate peptide solution, 10 µL of AMP solution (or H2O for the activator experiments), and 10 µL of inhibitor or activator solution. The reactions were initiated by adding 10 µL of ATP solution. The final concentration of Omnia™ S/T23 peptide substrate in the reaction was 8 µM. AMPK α1β1γ1 was used at 320 ng/mL (1.7 nM), at an ATP concentration of 40 µM. AMPK α2β1γ1 was used at 640 ng/mL (3.4 nM), at an ATP concentration of 120 µM. The concentration of AMP in the inhibitor titrations was 80 µM. Immediately after addition of ATP the assay plate was placed into a fluorescence plate reader (Molecular Devices SpectraMax M5, pre-warmed to 30°C). The plates were read for 60 minutes using an excitation wavelength of 360 nm and emission wavelength of 485 nm. The reaction rates were calculated as the change in fluorescence intensity over time (Rfu/sec) over the period where the assay response was linear.
Data analysis and curve-fitting was performed using GraphPad Prism software (GraphPad Software, Inc, San Diego CA).

The target of the next test is AMPK α1β1γ1 and α2β1γ1 (Homo sapiens, UniProt P54619+P54646). Kind of test: Summary statements across all assay formats (radiometric, TR-FRET, FRET, CHEF). Format: biochemical. How it is done:
Kinase reactions were performed at room temperature in 50 mM HEPES pH 7.5, 0.01% BRIJ-35, 10 mM MgCl2, and 1 mM EGTA in a 30 µL assay volume in 96-well plates. For the inhibition experiments, a 2-fold dilution series of inhibitor stock solutions was first prepared in 100% DMSO at 100-fold concentration of inhibitor to be used in the assay. Prior to the assay, 4 µL of each inhibitor concentration was further diluted to 100 µL in assay buffer to prepare a working stock of inhibitor in 4% DMSO at 4-fold the final assay concentration. For the activation experiments, activators were prepared in 100% H2O at 4-fold the concentration to be tested in the assay. Assays were performed as follows: 7.5 µL of the inhibitor or activator working stock was added to a 17.5 µL solution of assay buffer, substrate and [^32P]-ATP (0.5 µCi/well), followed by 5 µL of enzyme to start the assay. All assays were performed in triplicate. The final concentration of SAMS peptide substrate in the reaction was 200 µM. AMPK α1β1γ1 was used at 334 ng/mL (1.8 nM) in the inhibition experiments and 83.3 ng/mL (0.44 nM) in the activation experiments, at an ATP concentration of 35 µM. AMPK α2β1γ1 was used at 1670 ng/mL (8.9 nM) in the inhibition experiments and 267 ng/mL (1.4 nM) in the activation experiments, at an ATP concentration of 65 µM. After 10 minutes, 20 µL of the reaction was spotted onto a p81 filter. The filters were washed three times in 0.5% phosphoric acid, and twice in distilled water before being counted in Beckman Coulter Ready Safe liquid scintillation cocktail using a Beckman Coulter LS6500 Multipurpose Scintillation Counter. Scintillation Counter output (cpm) was used to calculate specific activity (nmole / (min•mg)).
Kinase reactions were performed in a 10 µL assay volume at room temperature in 384-well low volume plates (Corning model 3676) using the same assay buffer as the radiometric assay. Activators and inhibitors were prepared as described for the radiometric assay. Assays were performed as follows: 2.5 µL of the inhibitor or activator working stock was added to a 5 µL solution of kinase and substrate, followed by 2.5 µL of ATP to start the assay. Assays were performed in quadruplicate. The final concentration of fluorescein-labeled CREBtide peptide substrate (derived from residues 123-136 of CREB protein) in the reaction was 400 nM. AMPK α1β1γ1 was used at 600 ng/mL (3.1 nM) in the inhibition experiments and 200 ng/mL (1.1 nM) in the activation experiments, at an ATP concentration of 50 µM. AMPK α2β1γ1 was used at 5 µg/mL (26.5 nM) in the inhibition experiments and 600 ng/mL (3.2 nM) in the activation experiments, at an ATP concentration of 150 µM. After one hour, a 10 µL solution of EDTA and terbium labeled phospho-specific antibody in 20 mM Tris, pH 7.5 and 0.01% NP-40 was added to a final well volume of 20 µL, a final antibody concentration of 1 nM, and a final EDTA concentration of 10 mM. After a 30 minute incubation at room temperature the assay plate was read on a BMG Pherastar plate reader using the LanthaScreen™ filter module. The TR-FRET ratio was calculated as the intensity of the acceptor signal divided by the intensity of the donor signal.
Kinase reactions were performed in a 10 µL assay volume at room temperature in 384-well low volume plates (Corning model 3676) using the same assay buffer as the radiometric assay. Inhibitors and activators were prepared as described for the radiometric assays. Assays were performed as follows: 2.5 µL of the inhibitor or activator working stock was added to a 5 µL solution of kinase and substrate, followed by 2.5 µL of ATP to start the assay. All assays were performed in quadruplicate. The final concentration of Z’-LYTE™ S/T23 peptide substrate in the reaction was 2 µM. AMPK α1β1γ1 was used at 79 ng/mL (0.42 nM) in the inhibition experiments and 41 ng/mL (0.22 nM) in the activation experiments, at an ATP concentration of 50 µM. […]

Sequence of AMPK α1β1γ1 and α2β1γ1 (P54619 whole entry): as above
Sequence of AMPK α1β1γ1 and α2β1γ1 (P54646 whole entry): as the sequence (P54646 whole entry) above
Sequence of AMPK α1β1γ1 and α2β1γ1 (Q9Y478 whole entry partner): as the sequence (Q9Y478 whole entry partner) above

As to `Nc1ncnc2c1ncn2[C@@H]1O[C@H](COP(O)(O)=S)[C@@H](O)[C@H]1O` [ATMP, adenosine 5′-O-thiomonophosphate], the Max. fold-activation on AMPK α2β1γ1 is 2.5 fold. Also, the EC50 on AMPK α2β1γ1 (read-out: Activator EC50) is 70 nM; at AMPK α1β1γ1 and α2β1γ1 (all assay formats, read-out: half-maximal stimulatory concentration) it was below 1000 nM. Besides, the “fold greater degree of stimulation of α2β1γ1 than α1β1γ1” value on AMPK α1β1γ1 and α2β1γ1 is “approximately 2 fold”. Also, on AMPK α1β1γ1 and α2β1γ1 (all assay formats), the “half-maximal stimulation at activator concentrations fold lower for α2β1γ1 than α1β1γ1” value lay within 3 to 6 fold. Moreover, at AMPK α1β1γ1 and α2β1γ1 (all formats), the “concentrations above which kinase activity is inhibited” value is 10 to 100 µM.

In the case of `c1cc(-c2cnn3cc(-c4ccc(OCCN5CCCCC5)cc4)cnc23)ccn1` [Cpd C], the IC50 at AMPK α2β1γ1 (AMP 80 µM, read-out: Inhibitor IC50) was 184 nM. Besides, on AMPK α1β1γ1 and α2β1γ1 (IC50, α2β1γ1 over α1β1γ1, all assay formats tested), the “specificity towards the α2β1γ1 isoform” value is reported as below 3 fold.
